Here are results for 33 compounds from patent publication US20230024302A1, “2,3,5-TRISUBSTITUTED PYRAZOLO[1,5-A]PYRIMIDINE COMPOUNDS” (Arcus Biosciences, Inc., priority 2019, published 2023).

Structures are written as SMILES. pIC50: −log10 of the molar value.

For one test, the target named is T1, PI3Kγ (p120γ) (Homo sapiens, UniProt P48736).
T1 construct: purchased Promega V1761
The test is described as follows: Inhibition of PI3K kinase activity (ADP Glo), PI3Kγ. To be noted: Table 6, p120γ, read-out: biochemical potency (PI3Kγ IC50). In a few lines: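 Recombinant p120γ (8 nM, 2× stock) was preincubated with compound for 1 h at rt in HEPES pH 7.4, NaCl, MgCl2 and 0.05% BSA. Reaction was started with PIP2 (0.1 mg/ml, 2×) and ATP (50 μM, 2×) and ran 60 min at rt. ADP formed was read by ADP-Glo luminescence, and IC50 came from a 4-parameter fit.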
Background: ADP-Glo turns the ADP formed in a reaction into a luminescent signal.

The target of the next test is T2, PI3Kγ (Homo sapiens, UniProt P48736).
T2 construct: host or cells: THP-1
The test is described as follows: PI3Kγ cellular assay in THP-1 cells (AKT pS473 AlphaLISA). The format is cell-based. To be noted: Table 6, rhMCP-1 stimulated AKT pS473, read-out: cellular potency (PI3Kγ IC50). In a few lines:
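Serum-starved THP-1 cells (1.8×10^5/well, serum-free DMEM) treated with compounds from 4 nM to 30 μM in 2% DMSO, then stimulated and lysed.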
In general terms: In Alpha technology, singlet oxygen from a donor bead excites a nearby acceptor bead.

T1 sequence (P48736 whole entry): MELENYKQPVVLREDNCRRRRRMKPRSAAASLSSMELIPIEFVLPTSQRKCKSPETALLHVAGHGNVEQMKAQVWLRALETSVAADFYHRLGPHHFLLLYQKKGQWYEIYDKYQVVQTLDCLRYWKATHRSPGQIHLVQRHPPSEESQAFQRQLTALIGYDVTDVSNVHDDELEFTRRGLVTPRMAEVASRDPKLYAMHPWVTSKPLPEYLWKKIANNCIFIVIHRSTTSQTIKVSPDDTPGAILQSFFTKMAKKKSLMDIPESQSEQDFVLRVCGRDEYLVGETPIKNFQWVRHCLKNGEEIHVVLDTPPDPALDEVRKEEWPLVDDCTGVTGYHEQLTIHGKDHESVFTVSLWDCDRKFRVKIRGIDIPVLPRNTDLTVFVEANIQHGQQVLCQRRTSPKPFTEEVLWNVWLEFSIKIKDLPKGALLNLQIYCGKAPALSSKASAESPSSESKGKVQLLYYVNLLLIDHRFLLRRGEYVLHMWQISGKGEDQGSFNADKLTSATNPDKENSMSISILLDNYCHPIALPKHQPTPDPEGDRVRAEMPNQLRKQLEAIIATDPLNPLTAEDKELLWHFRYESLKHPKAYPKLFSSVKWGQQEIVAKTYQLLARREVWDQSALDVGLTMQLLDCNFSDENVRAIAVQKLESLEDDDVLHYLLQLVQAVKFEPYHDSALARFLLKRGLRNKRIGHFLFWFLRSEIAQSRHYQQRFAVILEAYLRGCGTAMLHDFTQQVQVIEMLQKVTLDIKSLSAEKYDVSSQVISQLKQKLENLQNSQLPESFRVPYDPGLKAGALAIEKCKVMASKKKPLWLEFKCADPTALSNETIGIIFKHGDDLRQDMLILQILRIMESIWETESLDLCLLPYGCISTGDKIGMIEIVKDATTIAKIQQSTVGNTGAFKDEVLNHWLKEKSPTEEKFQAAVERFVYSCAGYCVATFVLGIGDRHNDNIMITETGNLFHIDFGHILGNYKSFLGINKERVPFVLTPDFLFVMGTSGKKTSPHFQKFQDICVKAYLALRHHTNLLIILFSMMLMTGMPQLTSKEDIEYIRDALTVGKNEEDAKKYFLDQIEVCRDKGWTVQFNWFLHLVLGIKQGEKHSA
T2 sequence (P48736 whole entry): as above

By pIC50 is commonly meant the IC50 on a negative log10 scale, so that one unit is a factor of ten. Regarding `Nc1nn2ccc(-c3cc4c(c(OC(F)(F)F)c3)C(=O)N([C@@H](CO)C3CC3)C4)nc2c1C(=O)NC1CC1` [Example 416], the pIC50 at PI3Kγ (p120γ) was above 7.00; at PI3Kγ, 6.00 to 7.00.

For `C[C@@H](C1CC1)N1Cc2cc(-c3ccn4nc(N)c(C(=O)N[C@H]5CNC[C@H]5O)c4n3)cc(OC(F)(F)F)c2C1=O` [Example 417], the pIC50 on PI3Kγ (p120γ) is above 7.00; at PI3Kγ, below 6.00.

For `C[C@@H](C1CC1)N1Cc2cc(-c3ccn4nc(N)c(C(=O)N[C@@H]5CNC[C@H]5O)c4n3)cc(OC(F)(F)F)c2C1=O` [Example 418], the pIC50 on PI3Kγ (p120γ) is above 7.00; on PI3Kγ it was below 6.00.

In the case of `C[C@@H](C1CC1)N1Cc2cc(-c3ccn4nc(N)c(C(=O)Nc5ccc(C(C)(C)O)cc5)c4n3)cc(OC(F)(F)F)c2C1=O` [Example 419], the pIC50 on PI3Kγ (p120γ) is above 7.00; at PI3Kγ, 6.00 to 7.00.

Regarding `C[C@@H](C1CC1)N1Cc2cc(-c3ccn4nc(N)c(C(=O)Nc5cccc(C(C)(C)O)c5)c4n3)cc(OC(F)(F)F)c2C1=O` [Example 420], the pIC50 on PI3Kγ (p120γ) is above 7.00; at PI3Kγ, 6.00 to 7.00.

Take `C[C@@H](C1CC1)N1Cc2cc(-c3ccn4nc(N)c(C(=O)N[C@H]5CCCNC5)c4n3)cc(OC(F)(F)F)c2C1=O` [Example 421]: the pIC50 at PI3Kγ (p120γ) is above 7.00; on PI3Kγ it was 6.00 to 7.00.

In the case of `C[C@@H](C1CC1)N1Cc2cc(-c3ccn4nc(N)c(C(=O)Nc5cnccc5N)c4n3)cc(OC(F)(F)F)c2C1=O` [Example 422], the pIC50 at PI3Kγ (p120γ) is above 7.00; at PI3Kγ, 6.00 to 7.00.

As for `COc1ccc(NC(=O)c2c(N)nn3ccc(-c4cc5c(c(OC(F)(F)F)c4)C(=O)N([C@@H](C)C4CC4)C5)nc23)cn1` [Example 423], the pIC50 at PI3Kγ (p120γ) was above 7.00; on PI3Kγ it was 6.00 to 7.00.

As for `C[C@@H](C1CC1)N1Cc2cc(-c3ccn4nc(N)c(C(=O)N[C@H]5CNC[C@@H]5O)c4n3)cc(OC(F)(F)F)c2C1=O` [Example 424], the figures for the pIC50 at PI3Kγ (p120γ) and on PI3Kγ were above 7.00 and below 6.00, respectively.

Consider `C[C@@H](C1CC1)N1Cc2cc(-c3ccn4nc(N)c(C(=O)Nc5ccccc5C(C)(C)O)c4n3)cc(OC(F)(F)F)c2C1=O` [Example 425], for which the negative-log IC50 (pIC50) is above 7.00 on PI3Kγ (p120γ) and below 6.00 on PI3Kγ.

For the compound `C[C@@H](C1CC1)N1Cc2cc(-c3ccn4nc(N)c(C(=O)N[C@H]5CCC[C@@H](N)C5)c4n3)cc(OC(F)(F)F)c2C1=O` [Example 426], the pIC50 at PI3Kγ (p120γ) was above 7.00; at PI3Kγ, 6.00 to 7.00.

Regarding `C[C@@H](C1CC1)N1Cc2cc(-c3ccn4nc(N)c(C(=O)Nc5ccccc5)c4n3)cc(OC(F)(F)F)c2C1=O` [Example 427], the pIC50 is above 7.00 at PI3Kγ (p120γ) and below 6.00 at PI3Kγ.

On to `C[C@@H](C1CC1)N1Cc2cc(-c3ccn4nc(N)c(C(=O)Nc5ccnc(C(F)(F)F)c5)c4n3)cc(OC(F)(F)F)c2C1=O` [Example 428], for which the values for the pIC50 on PI3Kγ (p120γ) and at PI3Kγ were above 7.00 and below 6.00, respectively.

Take `Cc1nn(C)cc1NC(=O)c1c(N)nn2ccc(-c3cc4c(c(OC(F)F)c3)C(=O)N([C@@H](C)C3CC3)C4)nc12` [Example 429]: the pIC50 on PI3Kγ (p120γ) and on PI3Kγ was above 7.00 throughout.

Take `C[C@@H](C1CC1)N1Cc2cc(-c3ccn4nc(N)c(C(=O)N[C@H]5C[C@](C)(O)C5)c4n3)cc(OC(F)F)c2C1=O` [Example 430]: the pIC50 on PI3Kγ (p120γ) and on PI3Kγ was above 7.00 throughout.

Regarding `C[C@H](N1Cc2cc(-c3ccn4nc(N)c(C(=O)NC5CC5)c4n3)cc(N3CC[C@@H](O)C3)c2C1=O)C(F)(F)F` [Example 431], the pIC50 is above 7.00 on PI3Kγ (p120γ) and 6.00 to 7.00 on PI3Kγ.

Take `C[C@@H](C1CC1)N1Cc2cc(-c3ccn4nc(N)c(C(=O)N[C@H]5C[C@@](C)(O)C5)c4n3)cc(N3CC[C@@H](O)C3)c2C1=O` [Example 432]: the pIC50 on PI3Kγ (p120γ) is above 7.00; on PI3Kγ, 6.00 to 7.00.

Take `C[C@@H](C1CC1)N1Cc2cc(-c3ccn4nc(N)c(C(=O)NC5CC5)c4n3)cc(N3CC(O)C3)c2C1=O` [Example 433]: the values for the pIC50 on PI3Kγ (p120γ) and on PI3Kγ were above 7.00 and 6.00 to 7.00, respectively.

Turning to `C[C@H](N1Cc2cc(-c3ccn4nc(N)c(C(=O)N[C@@H](CO)C5CC5)c4n3)cc(N3CC[C@@H](O)C3)c2C1=O)C(F)(F)F` [Example 434], the pIC50 was above 7.00 at PI3Kγ (p120γ) and 6.00 to 7.00 at PI3Kγ.

With `C[C@H](CO)NC(=O)c1c(N)nn2ccc(-c3cc4c(c(N5CC(F)(F)C5)c3)C(=O)N([C@@H](C)C3CC3)C4)nc12` [Example 435], the values for the pIC50 on PI3Kγ (p120γ) and at PI3Kγ were above 7.00 and 6.00 to 7.00, respectively.

On to `C[C@@H](C1CC1)N1Cc2cc(-c3ccn4nc(N)c(C(=O)NC5CC5)c4n3)cc(N3CC(F)(F)C3)c2C1=O` [Example 436], for which the pIC50 was above 7.00 at PI3Kγ (p120γ) and 6.00 to 7.00 on PI3Kγ.

Consider `C[C@@H](C1CC1)N1Cc2cc(-c3ccn4nc(N)c(C(=O)N[C@H]5CC[C@@](C)(O)CC5)c4n3)cc(N3CCN(C)CC3)c2C1=O` [Example 437], for which the pIC50 at PI3Kγ (p120γ) was above 7.00; at PI3Kγ it was 6.00 to 7.00.

Consider `C[C@@H](C1CC1)N1Cc2cc(-c3ccn4nc(N)c(C(=O)Nc5cccnc5)c4n3)cc(N3CC[C@@H](O)C3)c2C1=O` [Example 438], for which the pIC50 was above 7.00 on PI3Kγ (p120γ) and 6.00 to 7.00 at PI3Kγ.

With `C[C@H](CO)NC(=O)c1c(N)nn2ccc(-c3cc4c(c(OC5CC(F)(F)C5)c3)C(=O)N([C@@H](C)C3CC3)C4)nc12` [Example 439], the figures for the pIC50 at PI3Kγ (p120γ) and at PI3Kγ were above 7.00 and 6.00 to 7.00, respectively.

On to `C[C@H](CO)NC(=O)c1c(N)nn2ccc(-c3cc4c(c(O[C@H](C)C(F)(F)F)c3)C(=O)N([C@@H](C)C3CC3)C4)nc12` [Example 440], for which the pIC50 on PI3Kγ (p120γ) was above 7.00; at PI3Kγ, 6.00 to 7.00.

Regarding `C[C@@H](C1CC1)N1Cc2cc(-c3ccn4nc(N)c(C(=O)N[C@H]5CCNC5=O)c4n3)cc(O[C@@H]3CCOC3)c2C1=O` [Example 441], the pIC50 is above 7.00 on PI3Kγ (p120γ) and below 6.00 at PI3Kγ.

Consider `C[C@@H](C1CC1)N1Cc2cc(-c3ccn4nc(N)c(C(=O)NC5CC5)c4n3)cc(O[C@H](C)C(F)(F)F)c2C1=O` [Example 442], for which the values for the pIC50 on PI3Kγ (p120γ) and on PI3Kγ were above 7.00 and 6.00 to 7.00, respectively.

`C[C@@H](C1CC1)N1Cc2cc(-c3ccn4nc(N)c(C(=O)N[C@@H]5CNC(=O)C5)c4n3)cc(O[C@@H]3CCOC3)c2C1=O` [Example 443]: the pIC50 was above 7.00 on PI3Kγ (p120γ) and below 6.00 at PI3Kγ.

In the case of `C[C@@H](C1CC1)N1Cc2cc(-c3ccn4nc(N)c(C(=O)N[C@H]5C[C@](C)(O)C5)c4n3)cc(S(C)(=O)=O)c2C1=O` [Example 444], the values for the pIC50 at PI3Kγ (p120γ) and on PI3Kγ were above 7.00 and 6.00 to 7.00, respectively.

For `C[C@@H](C1CC1)N1Cc2cc(-c3ccn4nc(N)c(C(=O)N[C@H]5C[C@H](O)C5)c4n3)cc(S(C)(=O)=O)c2C1=O` [Example 445], the results for the pIC50 at PI3Kγ (p120γ) and on PI3Kγ were above 7.00 and 6.00 to 7.00, respectively.

In the case of `CC(C)NS(=O)(=O)c1cc(-c2ccn3nc(N)c(C(=O)NC4CC4)c3n2)cc2c1C(=O)N([C@@H](C)C1CC1)C2` [Example 446], the pIC50 at PI3Kγ (p120γ) was above 7.00; on PI3Kγ, 6.00 to 7.00.

In the case of `C[C@@H](C1CC1)N1Cc2cc(-c3ccn4nc(N)c(C(=O)NC5CC5)c4n3)cc(S(C)(=N)=O)c2C1=O` (stereo partly drawn) [Example 447], the pIC50 at PI3Kγ (p120γ) was above 7.00; on PI3Kγ, 6.00 to 7.00.

On to `C[C@@H](C1CC1)N1Cc2cc(-c3ccn4nc(N)c(C(=O)N[C@H]5CC[C@@](C)(O)CC5)c4n3)cc(S(C)(=N)=O)c2C1=O` (stereo partly drawn) [Example 448], for which the negative logarithm of the IC50 (pIC50) is above 7.00 on PI3Kγ (p120γ) and 6.00 to 7.00 on PI3Kγ.
